Molecules are shown by their SMILES.

Sequence of human Plasma Kallikrein (KLKB1) (P03952 391-638): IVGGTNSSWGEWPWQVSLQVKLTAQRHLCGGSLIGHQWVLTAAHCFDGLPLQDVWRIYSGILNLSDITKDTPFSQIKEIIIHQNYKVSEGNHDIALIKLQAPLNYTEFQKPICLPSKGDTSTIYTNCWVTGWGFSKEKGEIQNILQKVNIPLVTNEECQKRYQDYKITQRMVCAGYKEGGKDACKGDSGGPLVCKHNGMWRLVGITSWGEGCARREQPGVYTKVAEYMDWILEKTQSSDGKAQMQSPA
Sequence of human Plasma Kallikrein (KLKB1) (P03952 20-390 partner): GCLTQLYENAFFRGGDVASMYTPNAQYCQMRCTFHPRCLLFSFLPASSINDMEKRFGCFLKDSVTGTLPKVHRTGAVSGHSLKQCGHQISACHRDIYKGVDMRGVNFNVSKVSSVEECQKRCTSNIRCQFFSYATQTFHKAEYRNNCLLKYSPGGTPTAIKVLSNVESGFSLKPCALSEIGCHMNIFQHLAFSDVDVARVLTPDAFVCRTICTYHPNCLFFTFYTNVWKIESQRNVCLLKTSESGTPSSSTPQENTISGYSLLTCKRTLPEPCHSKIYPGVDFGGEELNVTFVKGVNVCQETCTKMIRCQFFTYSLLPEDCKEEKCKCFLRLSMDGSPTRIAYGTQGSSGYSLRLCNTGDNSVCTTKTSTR

For this experiment, the target named is human Plasma Kallikrein (KLKB1) (Homo sapiens (Human), UniProt P03952). Kind of experiment: Inhibition of KLKB1 endpoint assay. The experiment is classed as biochemical. To be noted: fluorogenic substrate H-Pro-Phe-Arg-AMC, 1 hr at Room Temperature, read-out: IC50 measurements for the inhibition of human Plasma Kallikrein (KLKB1). The method, then:
The ability of compounds of Formula I to inhibit plasma kallikrein (KLKB1), Factor XIIa (FXIIa), Factor XIa (FXIa), Factor Xa (FXa), Factor IIa (alpha-thrombin; FIIa), plasmin, trypsin, tissue kallikrein 1 (KLK1), Factor VIIa (FVIIa), or FVIIa complexed with Tissue Factor, phospholipids and CaCl2 (FVIIa/TF/PL/CaCl2) was determined using the following biochemical assays in assay buffer (100 mM Tris, 150 mM NaCL, adjusted to a pH of 7.8 with HCl, and containing 0.1% (w/v) BSA and 0.05% (v/v) Tween20) in the presence of 1% (v/v) DMSO:
Evaluation of the Inhibition of KLKB1 Using an Endpoint Assay
Subsequently, PPACK II (Calbiochem) was added as a stop solution to achieve a final concentration of 1 μM and fluorescence was measured using an Envision Reader (PerkinElmer) with the wavelength excitation setting of 355 nm and the wavelength emission setting of 460 nm.
The IC50 values were obtained with the aid of the inhibition of KLKB1 endpoint assay described above.
Regarding `Nc1nccc2c1CCC2NC(=O)c1cnn(Cc2ccc(CN3C[C@@H]4C[C@@H]4C3=O)cc2)c1` (single isomer, unassigned) [Example 48], the IC50 (usually the concentration that gives 50% inhibition) was 69 nM.
In the case of `Nc1nccc2c1CCC2NC(=O)c1cnn(Cc2ccc(CN3C[C@@H]4C[C@@H]4C3=O)cc2)c1` (single isomer, unassigned) [Example 49], the 50% inhibitory concentration (IC50) turned out to be 2 nM.
Take `Nc1nccc2c1CCC2NC(=O)c1cn(Cc2ccc(CN3C[C@@H]4C[C@@H]4C3=O)cc2)nc1C(F)(F)F` (single isomer, unassigned) [Example 50]: the IC50 came out at 1 nM.
With `Nc1nccc2c1CCC2NC(=O)c1cn(Cc2ccc(CN3C[C@@H]4C[C@@H]4C3=O)cc2)nc1C(F)(F)F` (single isomer, unassigned) [Example 51], the IC50 worked out at 89 nM.
In the case of `Nc1nccc2c1CC[C@H]2NC(=O)c1cnn(Cc2ccc(CN3CC4CC4C3=O)c(C(F)(F)F)c2)c1` (single isomer, unassigned) [Example 52], the IC50 was 41 nM.
Turning to `Nc1nccc2c1CC[C@H]2NC(=O)c1cnn(Cc2ccc(CN3CC4CC4C3=O)c(C(F)(F)F)c2)c1` (single isomer, unassigned) [Example 53], the half-maximal inhibitory concentration (IC50) is 1 nM.
The result for `Nc1nccc2c1CCC2NC(=O)c1cnn(Cc2ccc(CN3C[C@H]4C[C@H]4C3=O)cc2)c1` (single isomer, unassigned) [Example 54] reads 46 nM; that for `Nc1nccc2c1CCC2NC(=O)c1cnn(Cc2ccc(CN3C[C@H]4C[C@H]4C3=O)cc2)c1` (single isomer, unassigned) [Example 55], 490 nM.
With `Cc1cc(Cn2cc(C(=O)N[C@@H]3CCc4c3ccnc4N)nn2)ccc1N1CCN2CCCCC2C1=O` (single isomer, unassigned) [Example 56], the IC50 is 1200 nM.
As to `Cc1cc(Cn2cc(C(=O)N[C@@H]3CCc4c3ccnc4N)nn2)ccc1N1CCN2CCCCC2C1=O` (single isomer, unassigned) [Example 57], the IC50 came out at 6200 nM.
With `Cc1cc(Cn2cc(C(=O)N[C@@H]3CCc4c3ccnc4N)nn2)ccc1N1CCN2CCCC2C1=O` (single isomer, unassigned) [Example 58], the IC50 was determined as 1600 nM.
The result for `Cc1cc(Cn2cc(C(=O)N[C@@H]3CCc4c3ccnc4N)nn2)ccc1N1CCN2CCCC2C1=O` (single isomer, unassigned) [Example 59] reads 2200 nM; that for `Cc1cc(Cn2cc(C(=O)N[C@@H]3CCc4nc(N)ccc43)cn2)ccc1CN1CC2CC2C1=O` (single isomer, unassigned) [Example 67], 470 nM; that for `Cc1cc(Cn2cc(C(=O)N[C@@H]3CCc4nc(N)ccc43)cn2)ccc1CN1CC2CC2C1=O` (single isomer, unassigned) [Example 68], 10 nM.
Turning to `CC(c1ccc(N2CC3CC3C2)nc1)n1cc(C(=O)N[C@@H]2CCc3c2ccnc3N)cn1` (single isomer, unassigned) [Example 72], the concentration for half-maximal inhibition (IC50) turned out to be 10 nM.
Take `CC(c1ccc(N2CC3CC3C2)nc1)n1cc(C(=O)N[C@@H]2CCc3c2ccnc3N)cn1` (single isomer, unassigned) [Example 73]: the IC50 is 6 nM.
As to `Nc1ccc2c(n1)CC[C@H]2NC(=O)c1cnn(Cc2ccc(CN3C[C@H]4C[C@H]4C3=O)cc2)c1` [Example 1, 1-[4-((1R,5S)-2-Oxo-3-aza-bicyclo[3.1.0]hex-3-ylmethyl)-benzyl]-1H-pyrazole-4-carboxylic acid ((R)-2-amino-6,7-dihydro-5H-[1]pyrindin-5-yl)-amide], the IC50 stood at 530 nM.
The same measure for `Nc1ccc2c(n1)CCC2NC(=O)c1cnn(Cc2ccc(N3CCN4CCCC4C3)cc2)c1` (centres unmarked) [Example 2]: 2100 nM; for `Nc1ccc2c(n1)CC[C@H]2NC(=O)c1cnn(Cc2ccc(CN3C[C@@H]4C[C@@H]4C3=O)cc2)c1` [Example 3]: 17 nM.
The same measure for `Nc1ccc2c(n1)CCC2NC(=O)c1cn(Cc2ccc(CN3CC4CC4C3=O)cc2)nc1C(F)(F)F` (centres unmarked) [Example 4]: 63 nM; for `Nc1nccc2c1CCC2NC(=O)c1cnn(Cc2ccc(CN3CC4CC4C3=O)cc2)c1` (centres unmarked) [Example 5]: 10 nM; for `Nc1cc2c(cn1)CCC2NC(=O)c1cnn(Cc2ccc(CN3CC4CC4C3=O)cc2)c1` (centres unmarked) [Example 6]: 71 nM.
Consider `Nc1ccc2c(n1)CC[C@H]2NC(=O)c1cn(Cc2ccc(CN3C[C@H]4C[C@H]4C3=O)cc2)nc1C(F)(F)F` [Example 7], for which the IC50 is 420 nM.
For the molecule `Nc1ccc2c(n1)CC[C@H]2NC(=O)c1cn(Cc2ccc(CN3C[C@@H]4C[C@@H]4C3=O)cc2)nc1C(F)(F)F` [Example 8], the IC50 came to 14 nM.
The result for `Nc1ccc2c(n1)CCC2NC(=O)c1cn(Cc2ccc(N3CCN4CCCCC4C3=O)cc2)nn1` (centres unmarked) [Example 9] reads 3200 nM.
The same measure for `Nc1ccc2c(n1)CCC2NC(=O)c1cn(Cc2ccc(Cn3cc4c(n3)CCOC4)cc2)nn1` (centres unmarked) [Example 10]: 560 nM; for `Nc1ccc2c(n1)CCC2NC(=O)c1cn(Cc2ccc(CN3CCN4C(=O)CCCC4C3)cc2)nn1` (centres unmarked) [Example 11]: over 10000 nM.
With `Nc1nccc2c1C(NC(=O)c1cn(Cc3ccc(N4CCN5CCCCC5C4=O)cc3)nn1)CC2` (centres unmarked) [Example 12], the IC50 is over 10000 nM.
Take `Nc1cc2c(cn1)C(NC(=O)c1cn(Cc3ccc(N4CCN5CCCCC5C4=O)cc3)nn1)CC2` (centres unmarked) [Example 13]: the concentration for half-maximal inhibition (IC50) is over 10000 nM.
For `Nc1ccc2c(n1)CCC2NC(=O)c1cn(Cc2ccc(CN3CCN4CCCC4C3=O)cc2)nn1` (centres unmarked) [Example 14], the IC50 was 5900 nM.
The result for `Nc1ccc2c(n1)CCC2NC(=O)c1cnn(Cc2ccc(CN3CC4CC4C3=O)cc2)c1` (centres unmarked) [Example 15] reads 81 nM.
The same measure for `Cc1nn(Cc2ccc(CN3CC4CC4C3=O)cc2)cc1C(=O)NC1CCc2nc(N)ccc21` (centres unmarked) [Example 16]: 85 nM; for `Cc1cc(N)nc2c1C(NC(=O)c1cnn(Cc3ccc(CN4CC5CC5C4=O)cc3)c1)CC2` (centres unmarked) [Example 17]: 42 nM.
As for `Cc1cc(Cn2cc(C(=O)NC3CCc4nc(N)ccc43)nn2)ccc1N1CCN2CCCCC2C1=O` (centres unmarked) [Example 18], the IC50 was 1200 nM.
With `Cc1cc(N)nc2c1C(NC(=O)c1cn(Cc3ccc(N4CCN5CCCCC5C4=O)cc3)nn1)CC2` (centres unmarked) [Example 19], the IC50 came out at 2600 nM.
For the molecule `Nc1ccc2c(n1)CC[C@H]2NC(=O)c1cnn(Cc2ccc(CN3CC4CC4C3=O)c(C(F)(F)F)c2)c1` (some centres unmarked) [Example 22], the IC50 stood at 19 nM.
The same measure for `Nc1nccc2c1CC[C@H]2NC(=O)c1cnn(Cc2ccc(CN3CC4CC4CC3=O)cc2)c1` (some centres unmarked) [Example 23]: 2 nM.
As to `Nc1cc(C(F)(F)F)c2c(n1)CCC2NC(=O)c1cnn(Cc2ccc(CN3CC4CC4C3=O)cc2)c1` (centres unmarked) [Example 24], the IC50 is 3300 nM.
The same measure for `Nc1ccc2c(n1)CCC2NC(=O)c1cn(Cc2ccc(-n3cc4c(n3)CCOC4)cc2)nn1` (centres unmarked) [Example 27]: over 10000 nM; for `Nc1ccc2c(n1)CCC2NC(=O)c1cn(Cc2ccc(C3CC4CCCN4C3=O)cc2)nn1` (centres unmarked) [Example 29]: 2200 nM; for `Nc1ccc2c(n1)CC[C@H]2NC(=O)c1cn(Cc2ccc(N3CC4CC4C3)nc2)nn1` (some centres unmarked) [Example 32]: 24 nM.
The same measure for `Nc1nccc2c1CC[C@H]2NC(=O)c1cn(Cc2ccc(N3CC4CC4C3)nc2)nn1` (some centres unmarked) [Example 33]: 2 nM; for `Nc1nccc2c1CC[C@H]2NC(=O)c1cn(Cc2ccc(N3CC(=O)N4CCCC4C3)nc2)nn1` (some centres unmarked) [Example 34]: 390 nM.
The same measure for `Nc1nccc2c1CC[C@H]2NC(=O)c1cn(Cc2ccc(N3CCN4C(=O)COCC4C3)nc2)nn1` (some centres unmarked) [Example 35]: 600 nM; for `Nc1nccc2c1CC[C@H]2NC(=O)c1cnn(Cc2ccc(N3CC4CC4C3)nc2C(F)(F)F)c1` (some centres unmarked) [Example 36]: 1 nM; for `Nc1ccc2c(n1)CC[C@H]2NC(=O)c1cnn(Cc2ccc(N3CC4CC4C3)nc2C(F)(F)F)c1` (some centres unmarked) [Example 37]: 8 nM.
On to `Nc1nccc2c1CC[C@H]2NC(=O)c1cn(Cc2ccc(N3CC4CC4C3)nc2C(F)(F)F)nn1` (some centres unmarked) [Example 38], for which the IC50 stood at 1 nM.
The result for `Nc1ccc2c(n1)CC[C@H]2NC(=O)c1cn(Cc2ccc(N3CC4CC4C3)nc2C(F)(F)F)nn1` (some centres unmarked) [Example 39] reads 14 nM; that for `Nc1ccc2c(n1)CC[C@H]2NC(=O)c1cnn(Cc2cnc(N3CC4CC4C3)cc2C(F)(F)F)c1` (some centres unmarked) [Example 40], 9 nM.
The same measure for `Nc1nccc2c1CC[C@H]2NC(=O)c1cnn(Cc2cnc(N3CC4CC4C3)cc2C(F)(F)F)c1` (some centres unmarked) [Example 41]: 1 nM; for `Nc1nccc2c1CC[C@H]2NC(=O)c1cn(Cc2cnc(N3CC4CC4C3)cc2C(F)(F)F)nn1` (some centres unmarked) [Example 42]: 1 nM; for `Nc1ccc2c(n1)CC[C@H]2NC(=O)c1cn(Cc2cnc(N3CC4CC4C3)cc2C(F)(F)F)nn1` (some centres unmarked) [Example 43]: 13 nM.
Turning to `Cc1cc(N2CC3CC3C2)ncc1Cn1cc(C(=O)N[C@@H]2CCc3nc(N)ccc32)cn1` (some centres unmarked) [Example 44], the IC50 was 30 nM.
As to `Cc1cc(N2CC3CC3C2)ncc1Cn1cc(C(=O)N[C@@H]2CCc3c2ccnc3N)cn1` (some centres unmarked) [Example 45], the IC50 was found to be 4 nM.
Regarding `Cc1cc(N2CC3CC3C2)ncc1Cn1cc(C(=O)N[C@@H]2CCc3nc(N)ccc32)nn1` (some centres unmarked) [Example 46], the IC50 worked out at 38 nM.
As for `Cc1cc(N2CC3CC3C2)ncc1Cn1cc(C(=O)N[C@@H]2CCc3c2ccnc3N)nn1` (some centres unmarked) [Example 47], the IC50 is 4 nM.

(Values after patent US10640486B2, “Heteroarylcarboxamide derivatives as plasma kallikrein inhibitors” (Boehringer Ingelheim International GmbH, priority 2015, dated 2020).)
